# Experimental data: ChEMBL document CHEMBL2163248, “Classification of inhibitors of hepatic organic anion transporting polypeptides (OATPs): influence of protein expression on drug-drug interactions” (J Med Chem, 2012)
# Legend:
# [1] = molecular target: T1, Solute carrier organic anion transporter family member 2B1 (Homo sapiens, UniProt O94956); assay: Inhibition of human liver OATP2B1 expressed in HEK293 Flp-In cells assessed as reduction in [3H]E3S uptake at 20 uM incubated for 5 mins by scintillation counting; settings: hek293, 5 min
# T1 sequence (O94956 whole entry): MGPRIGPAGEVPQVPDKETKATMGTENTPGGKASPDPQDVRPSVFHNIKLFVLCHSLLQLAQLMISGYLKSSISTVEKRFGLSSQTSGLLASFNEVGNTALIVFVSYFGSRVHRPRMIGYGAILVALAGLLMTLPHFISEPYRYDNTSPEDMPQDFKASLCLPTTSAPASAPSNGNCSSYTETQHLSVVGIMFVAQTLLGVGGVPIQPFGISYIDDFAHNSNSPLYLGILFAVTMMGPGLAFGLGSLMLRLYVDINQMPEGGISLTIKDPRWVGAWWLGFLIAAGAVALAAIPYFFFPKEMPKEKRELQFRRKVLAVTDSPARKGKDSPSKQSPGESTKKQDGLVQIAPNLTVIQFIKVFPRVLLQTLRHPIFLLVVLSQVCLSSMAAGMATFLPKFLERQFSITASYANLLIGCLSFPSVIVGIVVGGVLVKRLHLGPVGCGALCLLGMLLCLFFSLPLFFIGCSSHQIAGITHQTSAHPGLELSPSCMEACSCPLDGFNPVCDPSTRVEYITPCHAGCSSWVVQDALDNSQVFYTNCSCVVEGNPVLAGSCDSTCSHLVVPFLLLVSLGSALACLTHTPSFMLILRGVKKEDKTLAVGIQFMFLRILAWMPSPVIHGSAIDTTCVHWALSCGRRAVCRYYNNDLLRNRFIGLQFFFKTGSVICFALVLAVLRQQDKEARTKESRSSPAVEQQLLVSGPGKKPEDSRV
# [2] = molecular target: T2, Solute carrier organic anion transporter family member 1B3 (Homo sapiens, UniProt Q9NPD5); assay: Inhibition of human liver OATP1B3 expressed in HEK293 Flp-In cells assessed as reduction in [3H]E17-betaG uptake at 20 uM incubated for 5 mins by scintillation counting; settings: hek293, 5 min
# T2 sequence (Q9NPD5 whole entry): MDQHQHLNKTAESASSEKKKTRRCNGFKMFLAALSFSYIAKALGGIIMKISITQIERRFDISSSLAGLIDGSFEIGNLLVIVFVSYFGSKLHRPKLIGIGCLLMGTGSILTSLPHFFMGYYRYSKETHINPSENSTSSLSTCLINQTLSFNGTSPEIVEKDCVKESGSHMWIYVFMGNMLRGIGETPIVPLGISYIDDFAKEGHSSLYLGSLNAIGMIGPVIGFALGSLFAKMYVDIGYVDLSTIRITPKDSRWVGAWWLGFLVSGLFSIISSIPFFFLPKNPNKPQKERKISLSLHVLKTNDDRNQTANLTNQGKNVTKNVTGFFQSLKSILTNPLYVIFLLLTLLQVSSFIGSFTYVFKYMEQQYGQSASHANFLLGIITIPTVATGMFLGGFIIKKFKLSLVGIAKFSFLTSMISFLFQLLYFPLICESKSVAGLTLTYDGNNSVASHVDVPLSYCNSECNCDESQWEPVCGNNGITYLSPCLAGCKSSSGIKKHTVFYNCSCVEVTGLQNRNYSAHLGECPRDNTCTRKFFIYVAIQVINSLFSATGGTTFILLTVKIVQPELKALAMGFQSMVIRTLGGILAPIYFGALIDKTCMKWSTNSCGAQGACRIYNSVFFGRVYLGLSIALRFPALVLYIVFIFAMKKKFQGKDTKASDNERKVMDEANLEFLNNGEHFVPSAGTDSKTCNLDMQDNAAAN
# [3] = molecular target: T3, Solute carrier organic anion transporter family member 1B1 (Homo sapiens, UniProt Q9Y6L6); assay: Inhibition of human liver OATP1B1 expressed in HEK293 Flp-In cells assessed as reduction in E17-betaG uptake at 20 uM by scintillation counting; settings: hek293, 20 µM
# T3 sequence (Q9Y6L6 whole entry): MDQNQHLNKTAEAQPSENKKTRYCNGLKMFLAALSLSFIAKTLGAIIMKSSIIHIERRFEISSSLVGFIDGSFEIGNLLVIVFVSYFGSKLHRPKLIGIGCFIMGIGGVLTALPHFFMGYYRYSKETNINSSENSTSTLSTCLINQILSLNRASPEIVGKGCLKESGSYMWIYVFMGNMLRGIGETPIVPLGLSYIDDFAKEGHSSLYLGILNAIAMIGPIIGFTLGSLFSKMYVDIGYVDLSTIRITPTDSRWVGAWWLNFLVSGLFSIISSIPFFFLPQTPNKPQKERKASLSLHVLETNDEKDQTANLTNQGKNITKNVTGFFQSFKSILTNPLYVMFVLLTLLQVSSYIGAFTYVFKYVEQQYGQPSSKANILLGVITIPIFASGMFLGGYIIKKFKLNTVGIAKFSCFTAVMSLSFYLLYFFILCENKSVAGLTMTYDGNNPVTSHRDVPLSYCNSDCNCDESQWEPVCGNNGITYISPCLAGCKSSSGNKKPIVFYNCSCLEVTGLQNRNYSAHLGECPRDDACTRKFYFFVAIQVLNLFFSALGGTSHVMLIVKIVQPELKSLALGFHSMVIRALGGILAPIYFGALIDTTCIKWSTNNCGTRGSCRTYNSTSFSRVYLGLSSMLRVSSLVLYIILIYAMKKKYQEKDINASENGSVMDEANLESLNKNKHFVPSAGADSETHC
SMILES,INH [1],INH [2],INH [3]
CCOc1nc2cccc(C(=O)O)c2n1Cc1ccc(-c2ccccc2-c2nnn[nH]2)cc1,28.4%,28.6%,52.1%
CCCc1nc2c(C)cc(-c3nc4ccccc4n3C)cc2n1Cc1ccc(-c2ccccc2C(=O)O)cc1,94.9%,91.5%,109.4%
CCCCC(=O)N(Cc1ccc(-c2ccccc2-c2nnn[nH]2)cc1)[C@H](C(=O)O)C(C)C,12.3%,33.7%,62.2%
CC(C)(C)NC(=O)[C@@H]1C[C@@H]2CCCC[C@@H]2CN1C[C@@H](O)[C@H](Cc1ccccc1)NC(=O)[C@H](CC(N)=O)NC(=O)c1ccc2ccccc2n1,,6.6%,
CC(C)CN(C[C@@H](O)[C@H](Cc1ccccc1)NC(=O)O[C@H]1CCOC1)S(=O)(=O)c1ccc(N)cc1,-3.4%,16.3%,79.3%
CN1CCC[C@@H]1Cc1c[nH]c2ccc(CCS(=O)(=O)c3ccccc3)cc12,0.4%,2.8%,31.7%
CCCc1nn(C)c2c(=O)[nH]c(-c3cc(S(=O)(=O)N4CCN(C)CC4)ccc3OCC)nc12,45.9%,30.8%,22.2%
CCC[C@@]1(CCc2ccccc2)CC(O)=C([C@H](CC)c2cccc(NS(=O)(=O)c3ccc(C(F)(F)F)cn3)c2)C(=O)O1,99%,109%,89.5%
C=C[C@H]1C[N+]2(C)CC[C@H]1C[C@@H]2[C@@H](O)c1ccnc2ccc(OC)cc12,-10.3%,21%,-6.1%
COc1cc2c(cc1OC)CN(CCc1ccc(NC(=O)c3cccc4c(=O)c5cccc(OC)c5[nH]c34)cc1)CC2,67.2%,37.4%,94.4%
COc1ccc2c3c([nH]c2c1)[C@H](CC(C)C)N1C(=O)[C@H](CCC(=O)OC(C)(C)C)NC(=O)[C@@H]1C3,78.8%,24.2%,59.3%
Cc1ccc(N(CC(=O)O)CC(=O)O)c(OCCOc2cc(-c3c4cc(Cl)c(=O)cc-4oc4cc(O)c(Cl)cc34)ccc2N(CC(=O)O)CC(=O)O)c1,,88.5%,
CC(C)(C)NC(=O)[C@@H]1CN(Cc2cccnc2)CCN1C[C@@H](O)C[C@@H](Cc1ccccc1)C(=O)N[C@H]1c2ccccc2C[C@H]1O.O,17.8%,18.1%,71.9%
CCOC(=O)[C@H](CCc1ccccc1)N[C@@H](C)C(=O)N1CCC[C@H]1C(=O)O,19.7%,4.1%,-7.5%
Cc1c(O)cccc1C(=O)N[C@@H](CSc1ccccc1)[C@H](O)CN1C[C@H]2CCCC[C@H]2C[C@H]1C(=O)NC(C)(C)C,50%,59.3%,71.3%
COc1ccc(CCN(C)CCCC(C#N)(c2ccc(OC)c(OC)c2)C(C)C)cc1OC (stereo not given),-62.6%,-9%,
C[C@H]1O[C@H](O[C@H]2[C@H](O)[C@@H](O)[C@@H](O[C@H]3[C@H](O)[C@@H](O)C(O)O[C@@H]3CO)O[C@@H]2CO)[C@H](O)[C@@H](O)[C@@H]1N[C@H]1C=C(CO)[C@@H](O)[C@H](O)[C@H]1O (stereo not given in full) [ACARBOSE],0.1%,17.7%,14.9%
Nc1nc2c(ncn2COCCO)c(=O)[nH]1 [ACYCLOVIR],-15.2%,-2%,2.3%
Oc1ncnc2[nH]ncc12 [ALLOPURINOL],8.4%,10.8%,-35.6%
NC12CC3CC(CC(C3)C1)C2 [AMANTADINE],17%,10%,26.4%

SMILES,INH [1],INH [2],INH [3]
Nc1ccc(C(=O)NCC(=O)O)cc1 [AMINOHIPPURIC ACID],27.4%,23.7%,30.1%
CN(C)CCC=C1c2ccccc2CCc2ccccc21 [AMITRIPTYLINE],-8.9%,22%,10.5%
COc1ccc(CCN2CCC(Nc3nc4ccccc4n3Cc3ccc(F)cc3)CC2)cc1 [ASTEMIZOLE],58.9%,24.4%,22.3%
CNCCCN1c2ccccc2CCc2ccccc21 [DESIPRAMINE],-4.4%,3.2%,
CN(CCOc1ccc(NS(C)(=O)=O)cc1)CCc1ccc(NS(C)(=O)=O)cc1 [DOFETILIDE],,19.9%,1%
Nc1nc(=O)n([C@@H]2CS[C@H](CO)O2)cc1F [EMTRICITABINE],,17.1%,6.4%
COc1cc([C@@H]2c3cc4c(cc3[C@@H](O[C@@H]3O[C@@H]5CO[C@@H](C)O[C@H]5[C@H](O)[C@H]3O)[C@H]3COC(=O)[C@H]23)OCO4)cc(OC)c1O [ETOPOSIDE],6.8%,,
CC(C)n1c(/C=C/C(O)CC(O)CC(=O)O)c(-c2ccc(F)cc2)c2ccccc21 (stereo not given) [FLUVASTATIN],,76%,
COc1ccc(Cl)cc1C(=O)NCCc1ccc(S(=O)(=O)NC(=O)NC2CCCCC2)cc1 [GLYBURIDE],77.4%,49.3%,
O=C1CN(/N=C/c2ccc([N+](=O)[O-])o2)C(=O)N1 [NITROFURANTOIN],23.1%,-1.5%,
CCCCC1C(=O)N(c2ccccc2)N(c2ccccc2)C1=O [PHENYLBUTAZONE],,17%,
CCCN(CCC)S(=O)(=O)c1ccc(C(=O)O)cc1 [PROBENECID],,22%,35.2%
C=C[C@H]1C[N@@]2CC[C@H]1C[C@@H]2[C@@H](O)c1ccnc2ccc(OC)cc12 [QUINIDINE],,,43.3%
C=C[C@H]1C[N@@]2CC[C@H]1C[C@H]2[C@H](O)c1ccnc2ccc(OC)cc12 [QUININE],,,54%
COC(=O)[C@H]1[C@H]2C[C@@H]3c4[nH]c5cc(OC)ccc5c4CCN3C[C@H]2C[C@@H](OC(=O)c2cc(OC)c(OC)c(OC)c2)[C@@H]1OC [RESERPINE],72.3%,,67.2%
CCC(C)(C)C(=O)O[C@H]1C[C@@H](C)C=C2C=C[C@H](C)[C@H](CC[C@@H]3C[C@@H](O)CC(=O)O3)[C@H]21 [SIMVASTATIN],47.4%,29.3%,
Nc1ccc(S(=O)(=O)Nc2ccnn2-c2ccccc2)cc1 [SULFAPHENAZOLE],17.1%,0.7%,
CC/C(=C(\c1ccccc1)c1ccc(OCCN(C)C)cc1)c1ccccc1 [TAMOXIFEN],11%,28.5%,
C[C@]12CC[C@H]3[C@@H](CCC4=CC(=O)CC[C@@]43C)[C@@H]1CC[C@@H]2O [TESTOSTERONE],-175.1%,,
